Here are results for 1 substance from patent US11229709B2, “Dendrimer drug conjugates for sustained intra-articular delivery” (Massachusetts Institute of Technology, priority 2017, dated 2022).

Data set [1] in a line: Joint residence time after intra-articular injection (IVIS imaging). Conditions: rats, calculated from half-life, dose injected and drug EC50. The text has this:
Prior to injection, knee joints were shaved and disinfected with iodine scrub and 70% ethanol, 3 times. Rats were serially imaged at timepoints using a IVIS Spectrum (Perkin-Elmer) instrument at 640/680 nm. Images were quantified by drawing an anatomical Region of Interest (ROI) around the knee joint, applying to each image, and measuring radiant efficiency within the ROI on Living Image (Perkin-Elmer) software. Data for each treatment group was fit to a single exponential decay curve (FIG. 4C) with a terminal plateau assigned to all groups based on imaging an untreated rat.

Data set [2] relates to medial tibia cartilage degeneration. The data set can be described thus: Rat surgical osteoarthritis model ACLT+MMx, histological analysis. In kind it is in vivo. Also noted: mean area of degenerated medial tibial cartilage, % of total cartilage area: dose or concentration left out as unconfirmed. Conditions: single intra-articular injection 48 hours after surgery.
Method: (§1) Skeletally mature male Sprague-Dawley rats of 12 weeks of age (350-400 g, Taconic) were injured by the Anterior Cruciate Ligament Transection and Partial Medial Meniscectomy (ACLT+pMMx) method to induce arthritis. […] Treatments were given by intra-articular injection into the affected joint 48 hours after surgery, using a joint concentration of 6 M IGF-1. Rats were sacrificed for analysis 30 days after surgery.
Histological processing and analysis was performed according to the guidelines for rat surgical models by the Osteoarthritis Research Society International (OARSI) histopathology initiative (Gerwin et al, Osteoarthritis and Cartilage, 2010, Schmitz et al, Osteoarthritis and Cartilage 2010). Six 250 μm frontal step sections were taken from the central ˜1.5 mm of the joint and stained with Toluidine Blue/Fast Green. Aggrecan in healthy cartilage is stained blue (dark) and collagens in bone or degenerated cartilage are stained green (light). The section with the most severe medial tibia cartilage lesion was identified by a blinded investigator and used for all further analysis. Sections were scored quantitatively for degeneration in a blinded manner by histomorphometry techniques based on OARSI histopathology initiative guidelines.
Degenerated tissue was defined as >50% cell death and loss of toluidine blue staining. […]
For data set [3], the system named is osteophytes. The data set can be described thus: Rat surgical osteoarthritis model ACLT+MMx, micro-computed tomography osteophyte volume. Conditions: single injection after surgery. Type of data set: in vivo.
Method: as §1
After fixation and before decalcification, excised rat joints were attached to the bore of a microCT scanner (GE eXplore CT 120) and scanned at 0.03° angles for a total of 1200 scans over a time period of 1.5 hours. Scans used an 80 kV x-ray potential, 32 mA current, and a 100 ms integration time. Image data sets were reconstructed into regions of interest encompassing single joints using Microview software (Parallax Innovations).
3D positioning data were used to quantify total volume of osteophytes (bone spurs) on each joint. 3D DICOM analysis software (Osirix MD) was used by a blinded investigator to re-section the images into a uniform frontal plane, perpendicular to an axis tangential to the femoral condyles and tibial plateau in the sagittal plane and an axis bisecting the femoral condyles and tibial plateau in the transverse plane. […] The sections were then reconstructed to 3D, and total osteophyte ROI volume was calculated for each rat. […]

With insulin like growth factor 1 [IGF-1], in data set [1], the “time at relevant (therapeutic) doses in the joint” value is 3 days. Besides, the “mean width of cartilage degeneration at the cartilage surface (0% tissue depth)” value in data set [2] (30 days after surgery) was 1390 μm. The “mean area of degenerated medial tibial cartilage, % of total cartilage area” value in data set [2] (joint concentration of IGF-1, 30 days after surgery) was 19.7%. In addition, the “reduction of osteophyte burden versus untreated” value in data set [3] is listed as roughly 50%. In addition, in data set [3] (30 days after surgery, microCT), the “mean total osteophyte volume (burden)” value is reported as 0.60 mm^3.
